# Data reported in patent publication US20190167676A1, “METHODS FOR IMPROVING RESISTANCE TO SKELETAL MUSCLE FATIGUE” (Cytokinetics, Inc., priority 2012, published 2019).
# Key:
# [1] = tested on: rat plantarflexor muscles; experiment: Rat plantar flexor force and power in situ; format: in vivo
# Excerpt: Rats were placed under anesthesia using isoflurane and the sciatic nerve of the experimental leg exposed. The rat was then placed on the platform of an Aurora in-situ muscle analysis rig (806C), maintained at body temperature via a circulating water system. The knee was immobilized in a clamp between two sharpened screws and the foot attached securely to the footplate of a force transducer (Aurora Scientific, Ontario, Canada) using laboratory tape. The muscle was stimulated directly via the sciatic nerve. For isolation of the nerve, a 1 cm incision was made at the upper thigh and the overlying muscle was dissected to expose an approximate 5 mm stretch of the sciatic nerve. This was then dissected free of surrounding connective tissue and a pair of stainless steel needle electrodes (0.10 mm) were hooked around the exposed nerve. The peroneal branch was severed to remove innervation to the plantar-extensor muscle groups. Muscle contractile properties were assessed by applying an electrical current to the nerve and recording the force generated by the muscle via a servomotor. Isokinetic contractile properties were assessed as force generated during a pre-programmed movement of the footplate. Footplate movements were 0.7 radians in size ([…]).
# Solutions of Compound A (50% PEG300/10% EtOH/40% cavitron formulation) were administered via a femoral vein catheter as a single slow bolus over a 2 min period, with a maximal dosage volume of 5 ml/Kg. During the experiment, blood was drawn via the tail vein for compound concentration analysis. At the end of each assay, the length and weight of the muscle was recorded, and measured force normalized to the mass of the muscle (N/g).
# Compound A increased force generation throughout the curve to generate a total of 55% more work over the 300 second period, while maintaining a similar profile to that of the vehicle.
# The same protocol was repeated with a second skeletal muscle troponin activator, 1-((1R)-1-methylpropyl)-6-chloro-7-pyrazolylimidazo[4,5-b]pyridin-2-ol (Compound B). Compound B and analogous skeletal muscle troponin activators are disclosed in U.S. Pat. No. 7,989,469. […] 0.7 radian displacement and stimulation frequency calculated to provide 50% of maximum isokinetic tension. Compound B maintained force generation throughout the curve, at almost 50% of vehicle stimulation frequency, to generate the same total work over the 300 second period, while maintaining a similar profile to that of the vehicle.
# [2] = tested on: sham and LAD-HF diaphragm fibers; experiment: Skinned diaphragm fiber Ca2+ sensitivity; design: species or system rat; settings: 3 μM
# Method: (§1) Muscle tissue for in vitro skinned fiber studies were prepared using an adapted protocol based on Lynch and Faulkner (Am J Physiol 275:C1548-54 (1998)). Briefly, rat muscle from sham and HF animals were rapidly dissected, rinsed in physiological saline, and then incubated in skinning solution (125 mM K-propionate, 20 mM imidazole, 5 mM EGTA, 2 mM MgCl2, 2 mM ATP, pH 7.0) supplemented with 0.5% TritonX-100 (Sigma Chemicals, St. Louis, Mo.) for 30 minutes at 4° C. The buffer was then changed to a storage solution (125 mM K-propionate, 20 mM imidazole, 5 mM EGTA, 2 mM MgCl2, 2 mM ATP, glycerol 50%, pH 7.0) and stored at −20° C. for later use.
# (§2) For skinned fiber analysis, single muscle fibers were dissected from larger segments of tissue in rigor buffer at 4° C. ([…], pH 7.0). They were then suspended between a 400 A force transducer (Aurora Scientific, Ontario, Canada) and a fixed post and secured with 2-4 μl of a 5% solution of methylcellulose in acetone. […] Tension was generated in each fiber by changing fiber buffer over to relax buffer supplemented with 1 mM EGTA and a 15 mM solution of calcium chloride and calculated using the web resource (www.stanford.edu/˜cpatton/webmaxc/webmaxcS.htm). […]
# [3] = tested on: extensor digitorum longus (EDL) muscles; experiment: In situ EDL force-frequency in sham and LAD-HF rats; format: in vivo, rat; settings: 3 mg/kg IV, sham and LAD-HF groups
# Method: An in situ assessment of selected animals from Example 12 was run at the end of the study to assess functional characteristics of extensor digitorum longus (EDL) muscles in Sham and LAD animals. Effects with and without Compound C (3 mg/kg IV) were assessed.
# Rats were placed under anesthesia and the skin around the experimental leg was removed. The distal end of the extensor digitorum longus (EDL) muscle and its associated tendon were then isolated. The rat was then placed on the platform of an Aurora in situ muscle analysis rig wherein the knee was immobilized and the distal tendon cut and tied to the arm of a force transducer. The muscle was stimulated directly via steel needle electrodes contacting the peroneal nerve. Muscle contractile properties were assessed by applying an electrical current to the nerve and recording the force generated by the muscle via a servomotor. The muscle length was adjusted to produce the maximum isometric force (Lo) after sub-maximal stimulation (30 Hz, 1 ms pulses, 350 ms train duration). Once Lo had been established, the nerve was stimulated every 2 minutes with a 30 Hz train (1 ms stimuli, 350 ms duration) for the course of the experiment.
# Once the preparation was stable, a force frequency relationship was assessed, then Compound C (3 mg/kg IV) or vehicle was injected and a second force frequency was assessed. […]
# [4] = tested on: sham and LAD-HF diaphragm strips; experiment: Diaphragm force-frequency by electrical field stimulation in organ bath; design: species or system rat; settings: 30 μM, sham and LAD-HF diaphragms, submaximal frequencies of electrical stimulation
# Method: Diaphragm contractile force was measured by electrical field stimulation in an organ bath system based on a standard operating protocol adapted from the Treat NMD website (http://www.treat-nmd.eu/downloads/file/sops/dmd/MDX/DMD M.1.2.002.pdf). The diaphragm and the last floating rib from sham and HF animals were excised, rinsed in physiological saline, and placed in a temperature controlled water-jacketed chamber (26-27° C.) containing Krebs-Henseleit Buffer (118 mM NaCl, 10 mM glucose, 4.6 mM KCl, 1.2 mM KH2PO4, 1.2 mM MgSO4*7 H2O, 24.8 mM NaHCO3, 2.5 mM CaCl2, 50 mg/L tubocurarine, 50 U/L insulin, pH:7.4) that was continuously aerated with 95% O2/[…]. After 10 minutes of equilibration, vertical strips spanning the floating rib to the central tendon were cut from diaphragms. Braided silk sutures were tied at the central tendon and floating rib and attached to a force transducer between two platinum electrodes. Diaphragm strips were set to a length that produced maximum twitch tension (Lo). The force-frequency profile of the muscle was obtained by stimulating the muscle at frequencies between 10-150 Hz (Grass Stimulator, 800 ms train duration, 0.6 ms pulse width). Compound C was suspended in DMSO and directly added into the bath.
# sham and HF EDL fibers = experiment: Skinned EDL fiber force-Ca2+ relationship; design: species or system rat; settings: 3 μM, sham and HF EDL muscle
# Method: as §1, §2
# LAD-HF rats = experiment: Fatiguing rotarod in rat heart failure model; format: in vivo
# Excerpt: To determine the effect of Compound C on skeletal muscle function in patients with heart failure, a rat heart failure model was used. Female Sprague Dawley rats (<250 g) were obtained from Charles River Laboratories having the left anterior descending coronary artery ligated prior to shipping (LAD-HF rats). Sham operated controls were also obtained from the same surgical preparation (sham controls). All rats underwent assessment of cardiac function after a three day acclimation to provide baseline levels. Animals were assessed on weeks 4, 7 and 10 to observe the progress of exercise intolerance at least 3 days after echocardiography. Exercise performance was assessed using the fatiguing rotarod protocol described in Example 11 (5 minute run ramping from 14-16 RPM, followed by run time assessment during a 10 minute ramp from 12 to 25 RPM). LAD-HF rats were selected based on a left ventricular fractional shortening <25% and reduced run time compared to sham controls. […] Decreases in fractional shortening (determined by echocardiography) were apparent.
# Animals were assigned in a cross-over fashion whereby half of the animals received Compound C (10 mg/kg PO) and half received vehicle (19.3%PEG: 80% (15%) captisol, pH3, 0.2% tween, 0.5% HPMC) via oral gavage 30 minutes prior to rotarod assessment on Day 1 and then the opposite treatment on Day 2.
# [5] = Plasma levels at end of rotarod experiment; format: in vivo, rat; settings: end of experiment (not at Cmax)
# Method: The effect of the fast skeletal muscle troponin activator 1-(2-(((trans)-3-fluoro-1-(3-fluoropyridin-2-yl)cyclobutyl)methylamino)pyrimidin-5-yl)-1H-pyrrole-3-carboxamide (Compound C) on muscle fatigue in healthy rats was determined by a rotarod running time test. […] On the day of the assessment, the animals began by running at an increasing speed from 14-16 RPM over 5 minutes. Rats were then run at a constantly accelerating rate from 12 RPM to 25 RPM over the course of 10 minutes. Time to fall was recorded, with the test being terminated at 600 seconds. The plasma levels were determined at the end of the experiments (not at Cmax). The plasma levels for the indicated doses were determined to be the following: […]
# healthy rats = experiment: Rotarod running assay; format: in vivo, rat; settings: control treatments by oral gavage: 300 mg/kg (60 min), caffeine 10 mg/kg (30 min), phosphoserine 1000 mg/kg (24 hours prior)
# Method: Female Sprague Dawley rats (210-260 g) were obtained from Charles River Laboratories and acclimated in the test facility for a minimum of six days prior to the start of the study. All rats were trained the day prior to compound administration. Training consisted of placing the rats on the rotating drum (rod), starting at a low constant speed (10 RPM). The rats were acclimated to walk on the drum for 5 minutes before resting. A second training session of an increasing speed from 14-16 RPM was initiated after all rats in the experimental group had finished the first training session. […] On the day of the experiment animals were dosed thirty minutes prior to start of test. The test began with a 5 minute primer session, whereby animals were run at an increasing speed from 14-16 RPM over 5 minutes. Rats were then run at a constantly accelerating rate from 12 RPM to 25 RPM over the course of 10 minutes. […] Time to fall was recorded, with the test being terminated at 900 seconds. Compound A was administered via oral gavage 30 minutes prior to assessment. Each dose was formulated as a suspension containing 0.2% Tween 80, 0.5% HPMC and water. Dose volume was 5 mL/kg. Vehicle (0.2% Tween 80, 0.5% HPMC and water) was administered similarly. Control treatments were chosen based on association with amelioration of central fatigue (caffeine, Davis 2003), muscular fatigue (creatine, Boyadjiev, 2007) and dual central/muscular fatigue (phosphoserine, […] 1976).
# mouse EDL muscle = settings: cited from earlier work
compound,measurement,setting,value
"1-((1R)-1-methylpropyl)-6-chloro-7-pyrazolylimidazo[4,5-b]pyridin-2-ol [Compound B]",isokinetic force frequency relationship,[1]; at 3.1 radians/s,increased in the submaximal range in a dose dependent manner
same,force-velocity relationship,[1]; at 30 Hz,increased across all velocities in a dose and velocity dependent manner
same,power output,[1]; corresponding to force velocities at 30 Hz,dose-dependent increase
same,isometric force frequency relationship,[1]; in situ,increased in the submaximal range in a dose dependent manner
same,stimulation frequency to generate the same total work,"[1]; isokinetic fatigue protocol at 50% of maximum isokinetic tension, 300 second period",~50 % of vehicle stimulation frequency
same,more total work over the 300 second period,"[1]; isokinetic fatigue protocol, 1 flexion per second at 3.1 radians/s, 30 Hz, vs vehicle",105%
"NC(=O)c1ccn(-c2cnc(NCC3(c4ncccc4F)CC(F)C3)nc2)c1 (stereo not drawn) [Compound C, 1-(2-(((trans)-3-fluoro-1-(3-fluoropyridin-2-yl)cyclobutyl)methylamino)pyrimidin-5-yl)-1H-pyrrole-3-carboxamide]",Ca2+ sensitivity,[2],significantly increased Ca^2+ sensitivity
same,response to low frequency stimulation,[3],increased response to low frequency stimulation in both groups
same,diaphragm force,[4],significantly increased force
same,force-Ca2+ relationship,sham and HF EDL fibers,leftward shift in the force-Ca^2+ relationship
same,increase of rotarod running time compared to vehicle treatment,LAD-HF rats; 10 mg/kg PO,approximately 2.5 fold
same,rotarod running time (mean±S.E.),"LAD-HF rats; 10 mg/kg PO 30 minutes prior, vehicle 111±32",277 ± 32 s
same,[Plasma],[5]; 0.01 mg/kg,0.003 µM
same,[Plasma],[5]; 0.03 mg/kg,0.007 µM
same,[Plasma],[5]; 0.1 mg/kg,0.024 µM
same,[Plasma],[5]; 0.3 mg/kg,0.083 µM
same,[Plasma],[5]; 1 mg/kg,0.204 µM
same,[Plasma],[5]; 3 mg/kg,0.478 µM
same,[Plasma],[5]; 10 mg/kg,1.95 µM
same,[Plasma],[5]; 30 mg/kg,3.64 µM
same,[Plasma],[5]; 100 mg/kg,28.0 µM
"Cn1c(=O)c2c(ncn2C)n(C)c1=O [caffeine, reference compound]",running time vs vehicle,healthy rats,no significant difference
same,tetanic tension and muscle fatigue,mouse EDL muscle; repeated 60 Hz stimulation over 6 minutes,increased initial tetanic EDL tension but accelerated and accentuated muscle fatigue
"CN(CC(=O)O)C(=N)N [creatine, reference compound]",running time vs vehicle,healthy rats,no significant difference
O=C1CN(/N=C/c2ccc(-c3ccc([N+](=O)[O-])cc3)o2)C(O)=N1 [dantrolene],tetanic tension and fatigue development,mouse EDL muscle; 20 μM,decreased early tetanic tension yet abolished overall fatigue development
"N[C@@H](COP(=O)(O)O)C(=O)O [phosphoserne, phosphoserine, reference compound]",running time vs vehicle,healthy rats,no significant difference
